From patent publication US8686113B2 (priority 2009, dated 2014)
Values after ≈ are worked out from the molar mass of the structure shown. Read-outs that look alike come from different tables or passages of the source. Non-standard residues stand in square brackets, D forms with d. Residues, ends and D or L forms follow the SMILES beside them. No end group written: not given here. *: point of attachment. Hyp = O=C(O)[C@@H]1C[C@@H](O)CN1; Tle = CC(C)(C)[C@H](N)C(=O)O; Orn = NCCC[C@H](N)C(=O)O; NHPr = CCCN*

Legend:
[1] = mouse, serum
[2] = Stability against bacterial proteases in E. coli lysate; assay type: in vitro ADME; conditions: E. coli lysate with 0.5 mg/mL protein concentration, 37° C.
Description: For the bacterial lysate, 500 mL of nutrient broth (Carl Roth GmbH+Co. KG, Karlsruhe) was inoculated with E. coli BL21 A1 and incubated overnight at 37° C. 2×250 mL bacterial suspension were centrifuged for 25 min at 5000 rpm and 4° C. in a Beckman Avanti™ J-20-XP centrifuge with JLA-10.500 rotor (Beckman Coulter, Fullerton, U.S.A.). The pellets were each suspended in 30 mL PBS (pH 7.4) and centrifuged again in a Beckman Allegra™ 2IR centrifuge (Beckman Coulter, Fullerton, U.S.A.). The pellets were each suspended in 10 mL PBS and were disrupted with ultrasound (Vibra-cell™ microtip, Fisher Bioblock Scientific, Illkirch, France) 2×5 min (750 W; amplitude 40%; 2 s on/3 s off) on ice. The bacterial lysates were combined and 1 mL aliquots were centrifuged at 15400 rpm for 20 min at 4° C. (Beckman Allegra™). The supernatants were removed and stored at −20° C. The protein content of the bacterial lysate was determined by protein determination according to Bradford.
A solution of 0.15 μg/mL peptide in bacterial lysate with protein content of 1.5 mg/mL or 0.5 mg/mL was incubated at 37° C. After 0, 30, 60, 120, 240 or 360 min, 200 μL was taken from each and the proteins were precipitated with 50 μL of 15% trichloroacetic acid. Then it was incubated for 10 min at 4° C. and then centrifuged for 5 min at 13000 rpm in a Minispin desktop centrifuge. 210 μL was taken from the supernatant and neutralized with 1 mol/L sodium hydroxide solution. The intact peptide and the degradation products were analyzed by HPLC. 60 μL of 3% aqueous acetonitrile with 0.1% trifluoroacetic acid (TFA) was added to the solution and 250 μL of the mixture was injected. After chromatographic separation, the constituents were identified by MALDI-TOF-MS,
In order to investigate the stability against bacterial proteases, a lysate was prepared from an overnight culture of E. coli BL21 A1 and the peptides were incubated in it. Using Bradford protein determination, the protein concentration was adjusted to 0.5 or 1.5 mg/mL.

E. coli BL21 A1 = assay type: cell-based, Escherichia coli
How it was run: (§1)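 Broth microdilution in 1% TSB with twofold peptide series, final 128 μg/mL to 62.5 ng/mL, against 5×10^6 bacteria/mL stock suspension added 1:1. Incubated 20 h at 37 °C, growth read by absorbance at 595 nm; MIC is the lowest concentration with no growth, determined in triplicate.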

M. luteus 10240 = test: Growth inhibition assay (microdilution MIC); assay type: cell-based, Micrococcus luteus; conditions: 10240, 20 h
How it was run: as §1

[3] = 25% aqueous mouse serum, 37° C., 75 μg/mL peptide
[4] = mouse, serum; remark: listed apart in the source
Description: For this, the peptides and peptidomimetics were dissolved in water, mouse serum was added and the peptide concentration was adjusted to 75 μg/mL. While shaking continuously, the mixture was incubated at 37° C. After 0, 30, 60, 120, 240 and 360 minutes, in each case an aliquot was taken and mixed with 15% aqueous trichloroacetic acid (Carl Roth GmbH & Co. KG; Karlsruhe, Germany). After incubation on ice for a further 10 minutes, the precipitated serum proteins were centrifuged off (5 min, 13400 rpm, MiniSpin, Eppendorf AG, Hamburg, Germany). The supernatant was removed, neutralized with 1 mol/L aqueous sodium hydroxide solution (Fluke Chemie GmbH, Buchs, Switzerland) and stored at −20° C. until analysis.
The supernatants were analyzed by RP-HPLC with a linear acetonitrile gradient (Biosolve BV, Valkenswaard, The Netherlands) in the presence of 0.1% trifluoroacetic acid (TFA, UV-grade, Fluka Chemie GmbH, Buchs, Switzerland) as ion-pairing reagent. The fractions were co-crystallized with α-cyanohydroxycinnamic acid (Bruker Daltonik GmbH; Bremen, Germany) as matrix (5.3 mg/mL in 50% acetonitrile in 0.1% aqueous TFA) and were analyzed with a tandem mass spectrometer (MALDI-TOF/TOF-MS, 4700 Proteomics Analyzer; Applied Biosystems GmbH, Weiterstadt, Germany) in the positive-ion reflector mode. The proportion of intact peptides and their degradation products or metabolites could thus be identified and quantified at the individual time points. The control used was 25% aqueous mouse serum, which was analyzed in parallel for the same time intervals.
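Wherever Half-life in 25% mouse serum is given: intact peptide left at successive time points measured by reversed-phase HPLC with an acetonitrile gradient in the supernatant after precipitation of serum proteins.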

| Molecule | half-life [2] | MIC E. coli BL21 A1 (E. coli BL21 A1; BL21, 20 h) | MIC M. luteus 10240 (M. luteus 10240) | Half-life in 25% mouse serum [3] | half-life [4] | also measured |
| --- | --- | --- | --- | --- | --- | --- |
| CC[C@H](C)[C@H](NC(=O)[C@H](CCCN)NC(=O)[C@H](CCCNC(=N)N)NC(=O)[C@@H]1CCCN1C(=O)[C@@H]1CCCN1C(=O)[C@H](CCCNC(=N)N)NC(=O)[C@@H]1CCCN1C(=O)[C@H](CCCNC(=N)N)NC(=O)[C@@H]1CCCN1C(=O)[C@H](CC(C)C)NC(=O)[C@H](Cc1ccc(O)cc1)NC(=O)[C@@H]1CCCN1C(=O)[C@@H]1CCCN1C(=O)[C@H](CCCCN)NC(=O)[C@H](CC(=O)O)NC(=O)[C@@H](N)C(C)C)C(=O)N[C@@H](Cc1ccc(O)cc1)C(=O)N[C@@H](CC(N)=O)C(=O)N[C@@H](CCCN)C(N)=O [SEQ ID NO. 72, VDKPPYLPRPRPPROIYNO-NH2] (H-VDKPPYLPRPRPPR[Orn]IYN[Orn]-NH2) | 1.92 h | 8 µg/mL (≈ 3.47 µM) | – | – | – | half-life ([1]; Half-life in 25% mouse serum, 25% aqueous mouse serum, 37° C., 75 μg/mL peptide): > 6 h; half-life ([1]; half-life in 25% aqueous mouse serum, 25% serum): > 6 h; MIC values against E. coli (E. coli BL21 A1): 8 µg/mL (≈ 3.47 µM) |
| CC[C@H](C)[C@H](NC(=O)[C@H](CCCN)NC(=O)[C@H](CCCNC(=N)N)NC(=O)[C@@H]1C[C@@H](O)CN1C(=O)[C@@H]1CCCN1C(=O)[C@H](CCCNC(=N)N)NC(=O)[C@@H]1CCCN1C(=O)[C@H](CCCNC(=N)N)NC(=O)[C@@H]1CCCN1C(=O)[C@H](CC(C)C)NC(=O)[C@H](Cc1ccc(O)cc1)NC(=O)[C@@H]1CCCN1C(=O)[C@@H]1CCCN1C(=O)[C@H](CCCCN)NC(=O)[C@H](CC(=O)O)NC(=O)[C@@H](N)C(C)C)C(=O)N[C@@H](Cc1ccc(O)cc1)C(=O)N[C@@H](CC(N)=O)C(=O)N[C@@H](CCCN)C(N)=O [SEQ ID NO. 107] (H-VDKPPYLPRPRP[Hyp]R[Orn]IYN[Orn]-NH2) | 3.58 h | – | – | – | – | – |
| CC(C)C[C@H](NC(=O)[C@H](Cc1ccc(O)cc1)NC(=O)[C@@H]1CCCN1C(=O)[C@@H]1CCCN1C(=O)[C@H](CCCCN)NC(=O)[C@H](CC(=O)O)NC(=O)[C@@H](N)C(C)C)C(=O)N1CCC[C@H]1C(=O)N[C@@H](CCCNC(=N)N)C(=O)N1CCC[C@H]1C(=O)N[C@@H](CCCNC(=N)N)C(=O)N1CCC[C@H]1C(=O)N1CCC[C@H]1C(=O)N[C@@H](CCCNC(=N)N)C(=O)N[C@@H](CCCN)C(=O)N[C@H](C(=O)N[C@@H](Cc1ccc(O)cc1)C(=O)N[C@@H](CC(N)=O)C(=O)N[C@@H](CCCN)C(N)=O)C(C)(C)C [SEQ ID NO. 109, VDKPPYLPRPRPPRO-Tle-YNO-NH2] (H-VDKPPYLPRPRPPR[Orn][Tle]YN[Orn]-NH2) | > 4 h | – | – | – | – | – |
| CC(C)C[C@H](NC(=O)[C@H](Cc1ccc(O)cc1)NC(=O)[C@@H]1CCCN1C(=O)[C@@H]1CCCN1C(=O)[C@H](CCCCN)NC(=O)[C@H](CC(=O)O)NC(=O)[C@@H](N)C(C)C)C(=O)N1CCC[C@H]1C(=O)N[C@@H](CCCNC(=N)N)C(=O)N1CCC[C@H]1C(=O)N[C@@H](CCCNC(=N)N)C(=O)N1CCC[C@H]1C(=O)N1C[C@H](O)C[C@H]1C(=O)N[C@@H](CCCNC(=N)N)C(=O)N1C[C@H](O)C[C@H]1C(=O)N[C@H](C(=O)N[C@@H](Cc1ccc(O)cc1)C(=O)N[C@@H](CC(N)=O)C(=O)N[C@@H](CCCN)C(N)=O)C(C)(C)C [SEQ ID NO. 110] (H-VDKPPYLPRPRP[Hyp]R[Hyp][Tle]YN[Orn]-NH2) | > 4 h | – | – | – | – | MIC E. coli BL21 A1 (E. coli BL21 A1; 1% TSB, 20 h at 37° C.): 2 µg/mL (≈ 0.862 µM) |
| CC[C@H](C)[C@H](NC(=O)[C@H](CCCNC(=N)N)NC(=O)[C@H](CCCNC(=N)N)NC(=O)[C@@H]1CCCN1C(=O)[C@@H]1CCCN1C(=O)[C@H](CCCNC(=N)N)NC(=O)[C@@H]1CCCN1C(=O)[C@H](CCCNC(=N)N)NC(=O)[C@@H]1CCCN1C(=O)[C@H](CC(C)C)NC(=O)[C@H](Cc1ccc(O)cc1)NC(=O)[C@@H]1CCCN1C(=O)[C@@H]1CCCN1C(=O)[C@H](CCCCN)NC(=O)[C@H](CC(=O)O)NC(=O)[C@@H](N)C(C)C)C(=O)N[C@@H](Cc1ccc(O)cc1)C(=O)N[C@@H](CC(N)=O)C(=O)N[C@@H](CCCN)C(N)=O [compound 50] (H-VDKPPYLPRPRPPRRIYN[Orn]-NH2) | – | 8 µg/mL (≈ 3.41 µM) | 16 µg/mL (≈ 6.81 µM) | 2 h | – | – |
| CCCNC(=O)[C@H](CCCNC(=N)N)NC(=O)[C@H](CC(N)=O)NC(=O)[C@H](Cc1ccc(O)cc1)NC(=O)[C@@H](NC(=O)[C@H](CCCNC(=N)N)NC(=O)[C@H](CCCNC(=N)N)NC(=O)[C@@H]1CCCN1C(=O)[C@@H]1CCCN1C(=O)[C@H](CCCNC(=N)N)NC(=O)[C@@H]1CCCN1C(=O)[C@H](CCCNC(=N)N)NC(=O)[C@@H]1CCCN1C(=O)[C@H](CC(C)C)NC(=O)[C@H](Cc1ccc(O)cc1)NC(=O)[C@@H]1CCCN1C(=O)[C@@H]1CCCN1C(=O)[C@H](CCCCN)NC(=O)[C@H](CC(=O)O)NC(=O)[C@@H](N)C(C)C)[C@@H](C)CC [compound 58] (H-VDKPPYLPRPRPPRRIYNR-NHPr) | – | 4 µg/mL (≈ 1.64 µM) | 8 µg/mL (≈ 3.29 µM) | >2 h | 1 h | – |
| CC[C@H](C)[C@H](NC(=O)[C@H](CCCN)NC(=O)[C@H](CCCNC(=N)N)NC(=O)[C@@H]1CCCN1C(=O)[C@@H]1CCCN1C(=O)[C@H](CCCNC(=N)N)NC(=O)[C@@H]1CCCN1C(=O)[C@H](CCCNC(=N)N)NC(=O)[C@@H]1CCCN1C(=O)[C@H](CC(C)C)NC(=O)[C@H](Cc1ccc(O)cc1)NC(=O)[C@@H]1CCCN1C(=O)[C@@H]1CCCN1C(=O)[C@H](CCCCN)NC(=O)[C@H](CC(=O)O)NC(=O)[C@@H](N)C(C)C)C(=O)N[C@@H](Cc1ccc(O)cc1)C(=O)N[C@@H](CC(N)=O)C(=O)N[C@@H](CCCNC(=N)N)C(N)=O [compound 61] (H-VDKPPYLPRPRPPR[Orn]IYNR-NH2) | – | 8 µg/mL (≈ 3.41 µM) | 16 µg/mL (≈ 6.81 µM) | 1.5 h | 1.08 h | – |
| CCCNC(=O)[C@H](CCCNC(=N)N)NC(=O)[C@H](CC(N)=O)NC(=O)[C@H](Cc1ccc(O)cc1)NC(=O)[C@@H](NC(=O)[C@H](CCCN)NC(=O)[C@H](CCCNC(=N)N)NC(=O)[C@@H]1CCCN1C(=O)[C@@H]1CCCN1C(=O)[C@H](CCCNC(=N)N)NC(=O)[C@@H]1CCCN1C(=O)[C@H](CCCNC(=N)N)NC(=O)[C@@H]1CCCN1C(=O)[C@H](CC(C)C)NC(=O)[C@H](Cc1ccc(O)cc1)NC(=O)[C@@H]1CCCN1C(=O)[C@@H]1CCCN1C(=O)[C@H](CCCCN)NC(=O)[C@H](CC(=O)O)NC(=O)[C@@H](N)C(C)C)[C@@H](C)CC [compound 71] (H-VDKPPYLPRPRPPR[Orn]IYNR-NHPr) | – | – | 8 µg/mL (≈ 3.35 µM) | >6 h | 1.75 h | – |
| CC(C)C[C@H](NC(=O)[C@H](CCCN)NC(=O)[C@H](CCCNC(=N)N)NC(=O)[C@@H]1CCCN1C(=O)[C@@H]1CCCN1C(=O)[C@H](CCCNC(=N)N)NC(=O)[C@@H]1CCCN1C(=O)[C@H](CCCNC(=N)N)NC(=O)[C@@H]1CCCN1C(=O)[C@H](CC(C)C)NC(=O)[C@H](Cc1ccc(O)cc1)NC(=O)[C@@H]1CCCN1C(=O)[C@@H]1CCCN1C(=O)[C@H](CCCCN)NC(=O)[C@H](CC(=O)O)NC(=O)[C@@H](N)C(C)C)C(=O)N[C@@H](Cc1ccc(O)cc1)C(=O)N[C@@H](CC(N)=O)C(=O)N[C@@H](CCCN)C(N)=O [compound 73] (H-VDKPPYLPRPRPPR[Orn]LYN[Orn]-NH2) | 1.5 h | 8 µg/mL (≈ 3.47 µM) | 16 µg/mL (≈ 6.94 µM) | – | – | – |
| VDKPPYLPRPRPPRRIYNR [compound 19] | – | 32 µg/mL | 64 µg/mL | <0.5 h | – | – |
